Among the test systems are ACHN renal; SK-OV-3 ovarian; SN12C renal; HCC-2998 colon; HOP-92 NSCLC; NCI-H23 lung; BT-549 breast; COLO 205 colon; MCF7 breast; M14 melanoma.
Test in all cases: NCI-60 cell line screen, 48 h

Values joined by “and” are separate entries in the source; they are usually repeats but may differ in a detail not shown here. Identical values can stand only once.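 These data come from cells grown in 96-well plates and exposed to compound for 48 hours at five concentrations. Here, GI50 denotes the concentration required for 50% inhibition of growth. TGI: concentration producing complete growth inhibition.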 Some results are limits rather than exact numbers.

Take `OCC1OC(n2cnc3cc(Cl)c(Cl)cc32)C(O)C1O` (stereo unspecified): the GI50 was 12700 nM in the test with ACHN renal; 37900 nM in the test with SK-OV-3 ovarian; 20600 nM in the test with SN12C renal; 12700 nM in the test with HCC-2998 colon; 35200 nM with HOP-92 NSCLC; 18800 nM in the test with NCI-H23 lung. Further, the GI50 was 23000 nM with BT-549 breast, 23800 nM with COLO 205 colon, 21500 nM in the test on MCF7 breast and 9360 nM in the test with M14 melanoma. For the same compound, the TGI with ACHN renal is 34600 nM; with SK-OV-3 ovarian, > 100000 nM; in the test with SN12C renal, 58400 nM; in the test with HCC-2998 colon it was 27000 nM; in the test with HOP-92 NSCLC, 99000 nM; in the test on NCI-H23 lung it was 42300 nM. Also, the TGI with BT-549 breast was 58400 nM; in the test on COLO 205 colon it was > 84500 nM; in the test on MCF7 breast, 75900 nM; in the test on M14 melanoma, 32500 nM.

Turning to `Cc1ccc(O)c(C(=O)/C=C/c2ccccc2)c1`, the TGI in the test on ACHN renal, in the test on SK-OV-3 ovarian, with SN12C renal, in the test on HCC-2998 colon, in the test with HOP-92 NSCLC and with NCI-H23 lung was > 100000 nM throughout. Also, the TGI in the test on BT-549 breast, in the test with COLO 205 colon, in the test with MCF7 breast and with M14 melanoma was > 100000 nM throughout.

For the compound `C=C1CC2(CC(c3ccccc3C)OC(c3ccccc3C)C2)OC1=O` (stereo unspecified), the TGI in the test on ACHN renal was determined as 6060 nM; in the test on SK-OV-3 ovarian, 24200 nM; with SN12C renal it was 4420 nM; in the test on HCC-2998 colon, 5820 nM; in the test on HOP-92 NSCLC, 3180 nM; in the test with NCI-H23 lung it was 3900 nM. The TGI in the test on BT-549 breast worked out at 4090 nM; with COLO 205 colon, 3680 nM; with MCF7 breast, 3870 nM; in the test with M14 melanoma it was 3020 nM.

In the case of `CN1c2cccc[c]2[Sn]([CH3])([CH3])[c]2ccccc21`, the GI50 is < 15.5 nM with ACHN renal; < 14.4 nM in the test with SK-OV-3 ovarian; < 13.8 nM in the test on SN12C renal; < 10 nM with HCC-2998 colon; 10 nM in the test with HOP-92 NSCLC; < 10 nM in the test on NCI-H23 lung. The GI50 was < 10 nM with BT-549 breast, 15 nM with COLO 205 colon, < 10 nM in the test on MCF7 breast and < 14.8 nM with M14 melanoma. Further, the TGI in the test on ACHN renal is 170 nM; in the test on SK-OV-3 ovarian it was < 32.6 nM; in the test on SN12C renal it was 116 nM; in the test on HCC-2998 colon it was 24.7 nM; in the test on HOP-92 NSCLC, 104 nM; in the test with NCI-H23 lung, 67.7 nM. The TGI with BT-549 breast was 165 nM; with COLO 205 colon it was 57.2 nM; in the test on M14 melanoma, 30.5 nM.

As for `O=C1NC(=O)/C(=C/c2ccc3nccc(-c4ccncc4)c3c2)S1`, the GI50 with ACHN renal is 469 nM; with SK-OV-3 ovarian it was 201 nM; with SN12C renal, 396 nM; in the test on HCC-2998 colon it was 350 nM; with HOP-92 NSCLC, 80.6 nM; with NCI-H23 lung it was 633 nM. Also, the GI50 with BT-549 breast is 212 nM; in the test on COLO 205 colon, 454 nM; in the test on MCF7 breast, 164 nM; in the test with M14 melanoma it was 365 nM. Further, the TGI is 8390 nM with ACHN renal; 918 nM in the test on SK-OV-3 ovarian; > 10000 nM in the test on SN12C renal; 3890 nM in the test on HCC-2998 colon; 494 nM in the test on HOP-92 NSCLC; > 6000 nM with NCI-H23 lung. The TGI in the test on BT-549 breast is 1390 nM; with COLO 205 colon it was 3670 nM; in the test with MCF7 breast it was > 10000 nM; in the test on M14 melanoma, 2790 nM.

Turning to `O=C(C#Cc1ccccc1)N1CCCCC1`, the TGI in the test on ACHN renal, in the test with SK-OV-3 ovarian, in the test with SN12C renal, in the test on HCC-2998 colon, with HOP-92 NSCLC and in the test on NCI-H23 lung was > 100000 nM in each case. Besides, the TGI in the test with BT-549 breast, with COLO 205 colon, with MCF7 breast and in the test on M14 melanoma was > 100000 nM in each case.

Consider `c1ccc(OCC[P+](c2ccccc2)(c2ccccc2)c2ccccc2)cc1`, for which the GI50 in the test on ACHN renal is 8470 nM; in the test on SK-OV-3 ovarian it was 2080 nM; in the test on SN12C renal, 1940 nM; in the test on HCC-2998 colon, 702 nM; in the test on HOP-92 NSCLC, 312 nM; in the test on NCI-H23 lung, 938 nM. Besides, the GI50 in the test with BT-549 breast was 1650 nM; in the test on COLO 205 colon it was 549 nM; with MCF7 breast, 1240 nM; in the test on M14 melanoma, 1570 nM. Also, the TGI in the test on ACHN renal was > 81900 nM; in the test with SK-OV-3 ovarian it was 8160 nM; in the test on SN12C renal, 16400 nM; in the test with HCC-2998 colon it was 12900 nM; in the test on HOP-92 NSCLC it was 3060 nM; in the test with NCI-H23 lung it was 6700 nM. Besides, the TGI is 12000 nM in the test with BT-549 breast, 2020 nM with COLO 205 colon, 11100 nM in the test on MCF7 breast and 9590 nM in the test with M14 melanoma.

Take `Cc1cc(C(=O)NOCCO)c(Nc2ccc(I)cc2F)n(C)c1=O`: the TGI was > 100000 nM with ACHN renal; > 100000 nM in the test on SK-OV-3 ovarian; > 100000 nM in the test on SN12C renal; > 6940 nM with HCC-2998 colon; 200 nM and 1040 nM in the test on HOP-92 NSCLC; > 100000 nM in the test with NCI-H23 lung. Further, the TGI in the test with BT-549 breast was > 100000 nM; in the test on COLO 205 colon it was > 100000 nM; with MCF7 breast, > 100000 nM; with M14 melanoma, 2890 nM. For the same compound, the GI50 in the test on SK-OV-3 ovarian is > 10000 nM and 51600 nM; in the test on SN12C renal it was 12300 nM; with HCC-2998 colon, 2.97 nM and < 10 nM; in the test on HOP-92 NSCLC, 5.85 nM and 23.5 nM; in the test with NCI-H23 lung, 23.7 nM and 13.1 nM; in the test with BT-549 breast, > 100000 nM. Besides, the GI50 in the test with COLO 205 colon was < 10 nM; in the test with MCF7 breast it was > 100000 nM; in the test on M14 melanoma, 1.59 nM and < 10 nM.

On to `O=C(Nc1ccc([N+](=O)[O-])cc1Cl)c1cc(Cl)ccc1O`, for which the GI50 is 155 nM and 258 nM in the test on ACHN renal; 150 nM and 234 nM in the test with SK-OV-3 ovarian; 115 nM and 195 nM in the test with SN12C renal; 215 nM and 452 nM with HCC-2998 colon; 19.4 nM and 59.1 nM in the test on HOP-92 NSCLC; 104 nM and 190 nM with NCI-H23 lung. Further, the GI50 was 105 nM and 156 nM in the test with BT-549 breast; 1340 nM and 1520 nM with COLO 205 colon; 151 nM and 286 nM in the test with MCF7 breast; 160 nM and 318 nM in the test on M14 melanoma. Further, the TGI was 19400 nM in the test with ACHN renal; 660 nM in the test on SK-OV-3 ovarian; 2580 nM and 3430 nM with HCC-2998 colon; 100 nM and 261 nM in the test with HOP-92 NSCLC; 390 nM and 737 nM with NCI-H23 lung; 344 nM and 647 nM with BT-549 breast. Besides, the TGI in the test on COLO 205 colon was 3260 nM and 3220 nM; with M14 melanoma it was 645 nM and 1750 nM.

These data come from PubChem BioAssay (NCI).
